From the NIST ThermoML archive (doi:10.1016/j.jct.2016.10.042)
Numbers after ± are expanded uncertainties.

Experiments:
[1] = xn = mol fraction of the nth substance listed; settings: 101 kPa, Liquid, Pycnometric method, x1 = 1
[2] = 101 kPa, Liquid, Pycnometric method

Structure (SMILES)	mass density ([1]; 293.15 K)	mass density ([1]; 298.15 K)	mass density ([1]; 303.15 K)	mass density ([1]; 308.15 K)	mass density ([1]; 313.15 K)	mass density ([1]; 318.15 K)	mass density ([2]; 293.15 K)	mass density ([2]; 298.15 K)	mass density ([2]; 303.15 K)	mass density ([2]; 308.15 K)	mass density ([2]; 313.15 K)	mass density ([2]; 318.15 K)
C1CCOC1 [tetrahydrofuran] + C=CC(=O)OCC	887.01 ± 1 kg/m3	882.05 ± 1 kg/m3	877.1 ± 1 kg/m3	872.14 ± 1 kg/m3	867.19 ± 1 kg/m3	862.23 ± 1 kg/m3	–	–	–	–	–	–
C1CCOC1 [tetrahydrofuran]	–	–	–	–	–	–	887.01 ± 1 kg/m3	882.05 ± 1 kg/m3	877.1 ± 1 kg/m3	872.14 ± 1 kg/m3	867.19 ± 1 kg/m3	862.23 ± 1 kg/m3
C1CCOC1 [tetrahydrofuran] + C=CC(=O)OC(C)(C)C	887.01 ± 1 kg/m3	882.05 ± 1 kg/m3	877.1 ± 1 kg/m3	872.14 ± 1 kg/m3	867.19 ± 1 kg/m3	862.23 ± 1 kg/m3	–	–	–	–	–	–
C1CCOC1 [tetrahydrofuran] + C=CC(=O)OC	887.01 ± 1 kg/m3	882.05 ± 1 kg/m3	877.1 ± 1 kg/m3	872.14 ± 1 kg/m3	867.19 ± 1 kg/m3	862.23 ± 1 kg/m3	–	–	–	–	–	–
C=CC(=O)OC(C)(C)C [tert-butyl acrylate]	–	–	–	–	–	–	884.13 ± 1 kg/m3	879.66 ± 1 kg/m3	875.2 ± 1 kg/m3	870.74 ± 1 kg/m3	866.28 ± 1 kg/m3	861.82 ± 1 kg/m3
C1CCOC1 [tetrahydrofuran] + C=CC(=O)OCCCC	887.01 ± 1 kg/m3	882.05 ± 1 kg/m3	877.1 ± 1 kg/m3	872.14 ± 1 kg/m3	867.19 ± 1 kg/m3	862.23 ± 1 kg/m3	–	–	–	–	–	–
